According to US20220331391A1 (priority 2021, published 2022):
≈ marks a conversion by molar mass, not a printed value. Where “and” joins values, the source holds several entries; their conditions need not be identical. Equal entries are not always repeated. Where two headings read alike, the source gives them in different places.

Tests used:
[1] = tested on: Coccidioides posadasii, Silveira strain; set-up: species or system mice; conditions: mouse, in vivo
[2] = tested on: Coccidioides posadasii, Silveira strain; conditions: cited from earlier work
[3] = human, in vivo, po
[4] = dog, in vivo, po
Coccidioides [5] = conditions: mouse, in vivo, 40 mg/kg/day; cited from earlier work
Coccidioides [6] = conditions: mouse, in vivo; cited from earlier work
[7] = mouse, in vivo, cited from earlier work; for Cmax in plasma / Tmax in plasma / t1/2 in plasma: po
[8] = mouse, in vivo, po, cited from earlier work
[9] = mouse, in vivo; cited from earlier work
[10] = in vivo, cited from earlier work

## OC(Cn1cncn1)(Cn1cncn1)c1ccc(F)cc1F [FCZ, Fluconazole, reference compound]
[1]
  Brains sterilized in survivors: 20%
  Clear brains of survivors (mice): 1 of 5
  Infected brain and infected other organs, number of mice among survivors: 4
  Infected brain only, number of mice among survivors: 0
  Infected brain, number of mice among survivors: 4
  Infected kidney, number of mice among survivors: 1
  Infected liver, number of mice among survivors: 4
  Infected lung, number of mice among survivors: 4
  Infected spleen, number of mice among survivors: 3
  Kidney CFU in survivors: number of mice with 0 CFU: 5
  Kidney CFU in survivors: number of mice with 1-2 CFU: 0
  Kidney CFU in survivors: number of mice with 10-20 CFU: 0
  Kidney CFU in survivors: number of mice with TNTC (too numerous to count): 0
  Liver CFU in survivors: number of mice with 0 CFU: 1
  Liver CFU in survivors: number of mice with 1-2 CFU: 1
  Liver CFU in survivors: number of mice with 10-20 CFU: 2
  Liver CFU in survivors: number of mice with TNTC (too numerous to count): 1
  Lung CFU in survivors: number of mice with 0 CFU: 1
  Lung CFU in survivors: number of mice with 1-2 CFU: 2
  Lung CFU in survivors: number of mice with 10-20 CFU: 1
  Lung CFU in survivors: number of mice with TNTC (too numerous to count): 1
  No infection any organ, number of mice (complete sterilization): 1
  Semiquantitative culture, CFU in all organs except the spleen: too numerous to count
  Semiquantitative culture, CFU in spleen: no CFU
  Spleen CFU in survivors: number of mice with 0 CFU: 2
  Spleen CFU in survivors: number of mice with 1-2 CFU: 2
  Spleen CFU in survivors: number of mice with 10-20 CFU: 1
  Spleen CFU in survivors: number of mice with TNTC (too numerous to count): 0
  Survival: 50%
  Survivors: 5/10
[2]
  MFC: > 100 µg/mL
  MIC: 6.25 µg/mL (≈ 20.4 µM)

## C[C@@H]([C@H](N)C(=O)N[C@H](C(=O)O)[C@H]1O[C@@H](n2ccc(=O)[nH]c2=O)[C@H](O)[C@@H]1O)[C@H](O)c1ccc(O)cn1 [nikZ, Nikkomycin Z]
[1]
  Brains sterilized in survivors: 86% and 89% and 80%
  Brains sterilized, mice/10 treated: ≥ 6 mice/10
  Clear brains of survivors (mice): 6 of 7 and 8 of 9
  Infected brain, number of mice among survivors: 1 and 2
  Infected kidney, number of mice among survivors: 0
  Infected spleen, number of mice among survivors: 0
  Kidney CFU in survivors: number of mice with 0 CFU: 7 and 9 and 10
  Kidney CFU in survivors: number of mice with 1-2 CFU: 0
  Kidney CFU in survivors: number of mice with 10-20 CFU: 0
  Kidney CFU in survivors: number of mice with TNTC (too numerous to count): 0
  Liver CFU in survivors: number of mice with 0 CFU: 6 and 9 and 10
  Liver CFU in survivors: number of mice with 10-20 CFU: 0
  Liver CFU in survivors: number of mice with TNTC (too numerous to count): 0
  Lung CFU in survivors: number of mice with 0 CFU: 6 and 9
  Lung CFU in survivors: number of mice with 10-20 CFU: 0
  Lung CFU in survivors: number of mice with TNTC (too numerous to count): 0
  No infection any organ, number of mice (complete sterilization): 6 and 8
  Spleen CFU in survivors: number of mice with 0 CFU: 7 and 9 and 10
  Spleen CFU in survivors: number of mice with 1-2 CFU: 0
  Spleen CFU in survivors: number of mice with 10-20 CFU: 0
  Spleen CFU in survivors: number of mice with TNTC (too numerous to count): 0
  Survivors: 7/10 and 9/10 and 10/10
mouse, in vivo
  Cmin as % of Cmax: 1%
mouse, in vivo, po
  Blood level as % of Cmax by 8 hours: about 5%
  Time to reach Cmax: 1 to 2 h
mouse, in vivo, po, 50 mg/kg
  AUC: 13,000
  Cmax: 3,750 ng/ml
  T 1/2: 2.61 h
  Tmax: 1
mouse, in vivo, po, 100 mg/kg
  AUC: 20,600
  Cmax: 4,620 ng/ml
  T 1/2: 2.15 h
  Tmax: 1
mouse, in vivo, po, 300 mg/kg
  AUC: 38,200
  Cmax: 7,950 ng/ml
  T 1/2: 2.26 h
  Tmax: 2
Time 0.5
  Mouse plasma nikZ level: 2920 ng/mL
  Mouse plasma nikZ level, % (of Cmax): 77.9%
Time 1
  Mouse plasma nikZ level: 3750 ng/mL
  Mouse plasma nikZ level, % (of Cmax): 100%
Time 2
  Mouse plasma nikZ level: 2320 ng/mL
  Mouse plasma nikZ level, % (of Cmax): 62% and 61.9%
Time 4
  Mouse plasma nikZ level: 1400 ng/mL
  Mouse plasma nikZ level, % (of Cmax): 37% and 37.3%
Time 8
  Mouse plasma nikZ level: 180 ng/mL
  Mouse plasma nikZ level, % (of Cmax): 4.8%
Time 12
  Mouse plasma nikZ level: 35 ng/mL
  Mouse plasma nikZ level, % (of Cmax): 0.9%
Time 24
  Mouse plasma nikZ level: 7.5 ng/mL
  Mouse plasma nikZ level, % (of Cmax): 0.2%
[2]
  MFC: 2.5 µg/mL (≈ 5.05 µM)
  MIC: 2.5 µg/mL (≈ 5.05 µM)
[3]
  Blood level as % of Cmax by 8 hours: about 5%
  Time to reach Cmax: 1 to 2 h
[4]
  Blood level as % of Cmax by 8 hours: about 5%
  Time to reach Cmax: 1 to 2 h
Coccidioides [5]
  Survival: 20%
Coccidioides [6]
  Liver CFU asymptote of dose response curve: about 100 CFU
  Lung fungal count at suppression (dose response curve): below 10 CFU
  Spleen fungal count at suppression (dose response curve): below 10 CFU
  log10 CFU reduction in liver: −1.7 log10 CFU
  log10 CFU reduction in lung: −3.2 log10 CFU
  log10 CFU reduction in spleen: −1.8 log10 CFU
[7]; 100 mg/kg
  Cmax in plasma: 4200 ng/mL
  Tmax in plasma: 2 h
  t1/2 in plasma: 2.2 h
[7]; 300 mg/kg
  Cmax in plasma: 8000 ng/mL
  Tmax in plasma: 1 h
  t1/2 in plasma: 2.3 h
[7]
  Half-life in blood (clearance): 1 to 2 h
[8]; 100 mg/kg
  Cmax in brain: 0.20 mcg/gm
  Tmax in brain: 2 h
  t1/2 in brain: 6.2 h
[8]; 300 mg/kg
  Cmax in brain: 0.26 mcg/gm
  Tmax in brain: 2 h
  t1/2 in brain: 4.4 h
[9]
  Tolerated oral dose: up to 2000 mg/kg/day
[10]; human
  Half-life in blood (clearance): 1 to 2 h
[10]; po
  Dose at which tapering in oral uptake efficiency is observed (breakpoint): about 5.5 mg/kg
